US7387715B2, “Sample positioning and analysis system” (priority 1997, dated 2008)
Non-standard residues stand in square brackets, D forms with d. Residues, ends and D or L forms follow the SMILES beside them. Phe(ol) = N[C@H](CO)Cc1ccccc1; Aib = CC(C)(N)C(=O)O

How the values were obtained:
[1] = Voltage-clamp current recording of alamethicin pores in a vesicle-derived membrane over a chip aperture; format: biochemical; settings: alamethicin 0.1 μg/mL final concentration in measurement compartment, 85 mM KCl
Description: In these experiments, a membrane is formed over an aperture in 85 mM KCl. Next, alamethicin is added to the measurement compartment, to a final concentration of 0.1 μg/mL.^xvii Finally, a potential is applied, and a plot of current versus time is generated.

[2] = tested on: nAChR (nicotinic acetylcholine receptor); assay: Voltage-clamp current recording of nAChR fused into a membrane on a Si/SiO2 carrier chip; format: biochemical; settings: carbamylcholine 20 μM final concentration
Description: In these experiments, a membrane is formed as above. Next, nAChR is introduced into the membrane via Ca^2+-mediated fusion. Specifically, nAChR is purified from an appropriate source, and then reconstituted into small unilamellar vesicles.^xviii Next, these vesicles are added to the measurement compartment, and then fused to the membrane by increasing the Ca^2+ concentration of the sample chamber to greater than about 1 mM. In given cases, the fusion is supported by the subsequent temporary setup of an osmotic gradient.^xix Finally, a potential is applied, and a plot of current versus time is generated. In the absence of agonists, typical receptor opening events are observed (FIG. 15A), whereas, in the presence of agonists, such as carbamylcholine (20 μM final concentration), such receptor opening events are substantially extinguished within a short time (t<100 seconds) (FIG. 15B).

With CC(=O)NC(C)(C)C(=O)N1CCC[C@H]1C(=O)NC(C)(C)C(=O)N[C@@H](C)C(=O)NC(C)(C)C(=O)N[C@@H](C)C(=O)N[C@@H](CCC(N)=O)C(=O)NC(C)(C)C(=O)N[C@H](C(=O)NC(C)(C)C(=O)NCC(=O)N[C@@H](CC(C)C)C(=O)NC(C)(C)C(=O)N1CCC[C@H]1C(=O)N[C@H](C(=O)NC(C)(C)C(=O)NC(C)(C)C(=O)N[C@@H](CCC(=O)O)C(=O)N[C@@H](CCC(N)=O)C(=O)N[C@H](CO)Cc1ccccc1)C(C)C)C(C)C [alamethicin] (Ac-[Aib]P[Aib]A[Aib]AQ[Aib]V[Aib]GL[Aib]PV[Aib][Aib]EQ[Phe(ol)]) the “conductivities of the alamethicin pores” value [1] was 600 pS.
With C[N+](C)(C)CCOC(N)=O.[Cl-] [carbamylcholine] the “receptor openings after addition of the agonist (desensitization)” value ([2]; 150 seconds after addition, 400 mM KCl, positive potentials) was “no receptor openings are observed” and the “time within which receptor opening events are substantially extinguished in the presence of agonist” value [2] was < 100 s.
